Structures are written as SMILES.

These results are taken from US12649750B2, “Macrocyclic compounds, compositions, and methods of using thereof” (Sionna Therapeutics Inc., priority 2022, dated 2026).

One test deals with T1, NBD1 (Homo sapiens, UniProt P13569).
T1 construct: Purified recombinant NBD1 was produced using previously described methods; made in house
The experiment in a line: Aggregation analysis using differential static light scattering (DSLS), thermal stability of NBD1 (ΔTagg). In kind it is binding. The following applies: ΔTagg versus DMSO control, NBD1 0.2 mg/ml. In short, it runs like this: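 Differential static light scattering read from 25° C. to 70° C. every 0.5° C., ramp 1° C./min, on recombinant NBD1 (0.2 mg/ml; Tris/NaCl/MgCl2 buffer with 2 mM ATP, 2 mM DTT, pH 7.6, 1% glycerol) plus compound. Reported ΔTagg subtracts averaged DMSO Tagg from inflection-point Tagg; categories A ≤5, B >5-10, C >10-25° C.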

In a further test the target is T2, CFTR (Homo sapiens, UniProt P13569, DEL508-508).
T2 construct: Primary human bronchial epithelial cells from a ΔF508 homozygous CF donor; host or cells: primary human bronchial epithelial cells (CF-HBE), ΔF508 homozygous donor
T2 sequence (P13569 with tags, fused parts or gaps DEL508-508): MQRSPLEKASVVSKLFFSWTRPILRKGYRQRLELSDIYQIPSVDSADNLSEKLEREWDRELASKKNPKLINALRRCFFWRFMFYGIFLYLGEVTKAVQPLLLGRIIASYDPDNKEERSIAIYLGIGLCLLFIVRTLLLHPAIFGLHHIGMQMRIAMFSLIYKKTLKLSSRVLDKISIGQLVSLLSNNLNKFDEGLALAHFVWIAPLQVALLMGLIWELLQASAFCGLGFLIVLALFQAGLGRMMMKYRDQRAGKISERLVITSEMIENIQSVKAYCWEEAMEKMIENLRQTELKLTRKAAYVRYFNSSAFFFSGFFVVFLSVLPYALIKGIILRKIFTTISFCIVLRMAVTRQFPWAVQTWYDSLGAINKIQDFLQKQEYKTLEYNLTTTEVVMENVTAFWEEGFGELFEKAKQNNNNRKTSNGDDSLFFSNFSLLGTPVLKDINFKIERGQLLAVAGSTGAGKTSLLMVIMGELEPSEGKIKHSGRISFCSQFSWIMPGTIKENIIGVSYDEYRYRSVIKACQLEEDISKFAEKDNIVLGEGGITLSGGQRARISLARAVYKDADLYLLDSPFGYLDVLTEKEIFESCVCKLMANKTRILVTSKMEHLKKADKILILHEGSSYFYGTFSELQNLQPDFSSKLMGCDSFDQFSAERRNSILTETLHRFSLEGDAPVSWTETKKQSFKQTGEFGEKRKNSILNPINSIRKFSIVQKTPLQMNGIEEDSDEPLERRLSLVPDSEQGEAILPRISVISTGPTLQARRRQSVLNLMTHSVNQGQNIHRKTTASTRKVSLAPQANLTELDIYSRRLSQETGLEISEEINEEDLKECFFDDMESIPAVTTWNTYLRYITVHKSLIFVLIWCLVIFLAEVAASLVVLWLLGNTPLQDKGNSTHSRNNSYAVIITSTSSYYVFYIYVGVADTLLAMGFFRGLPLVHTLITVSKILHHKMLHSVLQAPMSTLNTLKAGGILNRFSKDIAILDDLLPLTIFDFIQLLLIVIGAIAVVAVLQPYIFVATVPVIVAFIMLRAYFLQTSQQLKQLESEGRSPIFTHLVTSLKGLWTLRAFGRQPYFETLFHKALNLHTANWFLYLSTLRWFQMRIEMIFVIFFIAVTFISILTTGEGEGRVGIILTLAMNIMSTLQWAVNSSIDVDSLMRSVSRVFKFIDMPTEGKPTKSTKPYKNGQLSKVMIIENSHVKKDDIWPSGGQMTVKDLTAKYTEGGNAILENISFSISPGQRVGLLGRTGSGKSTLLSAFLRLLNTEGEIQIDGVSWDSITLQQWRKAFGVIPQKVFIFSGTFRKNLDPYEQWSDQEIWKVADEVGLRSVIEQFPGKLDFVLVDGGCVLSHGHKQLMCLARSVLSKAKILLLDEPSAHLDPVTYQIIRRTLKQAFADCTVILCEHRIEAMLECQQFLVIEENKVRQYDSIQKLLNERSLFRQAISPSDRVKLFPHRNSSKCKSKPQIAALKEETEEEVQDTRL
The experiment in a line: TECC24 AUC fold over DMSO @10 μM, CFTR-mediated transepithelial chloride transport in CF-HBE cells. In kind it is cell-based. The conditions noted are these: test agent AUC divided by DMSO vehicle AUC, primary CF-HBE cells, ΔF508 homozygous donor, 48 hours incubation. In short, it runs like this: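 Value is ratio of test-agent to DMSO AUC of equivalent transepithelial Cl− current, integrated from forskolin (10 μM) stimulation to CFTR inhibitor-172 (20 μM) block, with benzamil 10 μM present. CF-HBE (ΔF508/ΔF508) cultures had 48 h compound exposure at 10 μM, 36.5° C before recording.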

T1 sequence (P13569 423-646 limits assumed): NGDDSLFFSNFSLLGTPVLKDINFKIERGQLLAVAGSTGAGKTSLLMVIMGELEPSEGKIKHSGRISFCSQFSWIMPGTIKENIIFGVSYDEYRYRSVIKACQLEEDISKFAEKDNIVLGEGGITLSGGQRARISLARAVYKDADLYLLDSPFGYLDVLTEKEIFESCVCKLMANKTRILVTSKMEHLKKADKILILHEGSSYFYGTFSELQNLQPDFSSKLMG

With `Cn1cc2nc1-c1cc(ccc1F)Oc1c(F)cc3[nH]ccc3c1CCS(=O)(=O)CC(C)(C)CCCC2(C)c1cccc(CCC(=O)O)c1` (stereo not shown) [Compound 77, 3-[3-(22,28-Difluoro-3,6,10,10-tetramethyl-12,12-dioxo-24-oxa-12λ6-thia-3,19,30-triazapentacyclo[23.3.1.12,5.015,23.016,20]triaconta-1(29),2(30),4,15,17,20,22,25,27-nonaen-6-yl)phenyl]propanoic Acid], the “DSLS 3D (100 μM ΔT)” value at NBD1 was “C (a value greater than 10 °C and less than or equal to 25 °C is marked “C”)”. In addition, the “TECC (AUC, 10 μM)” value at CFTR is on record as “A (a TECC value less than 12 is marked “A”)”.
As for `Cn1nc2nc1-c1cc(ccc1F)Oc1c(F)cc3[nH]ccc3c1CCS(=O)(=O)CC(C)(C)OCCC2(C)c1cccc(CCO)c1` (stereo not shown) [Compound 78, 2-[3-(22,28-Difluoro-3,6,10,10-tetramethyl-12,12-dioxo-9,24-dioxa-12lambda6-thia-3,4,19,30-tetrazapentacyclo-[23.3.1.12,5.015,23.016,20]triaconta-1(29),2(30),4,15,17,20,22,25,27-nonaen-6-yl)phenyl]-ethanol], the “DSLS 3D (100 μM ΔT)” value at NBD1 was “B (a value above 5 °C and less than or equal to 10 °C is marked “B”)”. Moreover, at CFTR, the “TECC (AUC, 10 μM)” value is reported as “A (a TECC value less than 12 is marked “A”)”.
For `CCOC(=O)CCc1cccc(C2CCS(=O)(=O)CCS(=O)(=O)CCc3c(c(F)cc4[nH]ccc34)Oc3ccc(F)c(c3)-c3ccn2n3)c1` (stereo not shown) [Compound 92, Ethyl 3-[3-(22,28-difluoro-9,9,12,12-tetraoxo-24-oxa-9lambda6,12lambda6-dithia-5,19,30-triazapentacyclo[23.3.1.12,5.015,23.016,20]triaconta-1(29),2(30),3,15,17,20,22,25,27-nonaen-6-yl)phenyl]propanoate], at NBD1, the “DSLS 3D (100 μM ΔT)” value was “A (an ΔTagg value less than or equal to 5 °C is marked “A”)”. Further, at CFTR, the “TECC (AUC, 10 μM)” value is “A (a TECC value less than 12 is marked “A”)”.
Consider `Cn1nc2nc1-c1cc(ccc1F)Oc1c(F)cc3[nH]ccc3c1Cc1ccnn1CCS(=O)(=O)CCC2(C)c1cccc(CCC(=O)O)c1` (stereo not shown) [Compound 99, 3-[3-(25,31-Difluoro-3,6-dimethyl-9,9-dioxo-27-oxa-9λ6-thia-3,4,12,13,22,33-hexazahexacyclo[26.3.1.12,5.012,16.018,26.019,23]tritriaconta-1(32),2(33),4,13,15,18,20,23,25,28,30-undecaen-6-yl)phenyl]propanoic Acid], for which, on NBD1, the “DSLS 3D (100 μM ΔT)” value was “A (an ΔTagg value less than or equal to 5 °C is marked “A”)”. Moreover, the “TECC (AUC, 10 μM)” value on CFTR is given as “A (a TECC value less than 12 is marked “A”)”.
As for `Cn1nc2nc1-c1cc(ccc1F)Oc1c(F)cc3[nH]ccc3c1CCS(=O)(=O)CC(C)(C)CCCC2(CO)c1cccc(CCC(=O)O)c1` (stereo not shown) [Compound 103, 3-[3-[22,28-Difluoro-6-(hydroxymethyl)-3,10,10-trimethyl-12,12-dioxo-24-oxa-12lambda6-thia-3,4,19,30-tetrazapentacyclo[23.3.1.12,5.015,23.016,20]triaconta-1(29),2(30),4,15,17,20,22,25,27-nonaen-6-yl]phenyl]propanoic Acid], on NBD1, the “DSLS 3D (100 μM ΔT)” value was “C (a value greater than 10 °C and less than or equal to 25 °C is marked “C”)”. In addition, the “TECC (AUC, 10 μM)” value on CFTR is “A (a TECC value less than 12 is marked “A”)”.
Take `Cn1nc2nc1-c1cc(ccc1F)Oc1c(F)cc3[nH]ccc3c1CCS(=O)(=O)CC(C)(C)CCCC2(C#N)c1cccc(CCC(=O)O)c1` (stereo not shown) [Compound 104, 3-[3-(6-Cyano-22,28-difluoro-3,10,10-trimethyl-12,12-dioxo-24-oxa-12lambda6-thia-3,4,19,30-tetrazapentacyclo[23.3.1.12,5.015,23.016,20]triaconta-1(29),2(30),4,15,17,20,22,25,27-nonaen-6-yl)phenyl]propanoic Acid]: on NBD1, the “DSLS 3D (100 μM ΔT)” value was “C (a value greater than 10 °C and less than or equal to 25 °C is marked “C”)”. Further, on CFTR, the “TECC (AUC, 10 μM)” value is “C (a value between 20 and 80 is marked “C”)”.
In the case of `Cn1nc2nc1-c1cc(ccc1F)Oc1c(F)cc3[nH]ccc3c1CCS(=O)(=O)CC(C)(C)CCCC2(CF)c1cccc(CCC(=O)O)c1` (stereo not shown) [Compound 105, 3-[3-[22,28-Difluoro-6-(fluoromethyl)-3,10,10-trimethyl-12,12-dioxo-24-oxa-12lambda6-thia-3,4,19,30-tetrazapentacyclo-[23.3.1.12,5.015,23.016,20]triaconta-1(29),2(30),4,15,17,20,22,25,27-nonaen-6-yl]phenyl]propanoic acid], the “DSLS 3D (100 μM ΔT)” value on NBD1 is “B (a value above 5 °C and less than or equal to 10 °C is marked “B”)”. Besides, the “TECC (AUC, 10 μM)” value at CFTR is “A (a TECC value less than 12 is marked “A”)”.
On to `Cn1nc2nc1-c1cc(ccc1F)Oc1c(F)cc3[nH]ccc3c1CCS(=O)(=O)CC(C)(C)C(F)(F)CCC2(C)c1cccc(CCC(=O)O)c1` (stereo not shown) [Compound 106, 3-[3-(9,9,22,28-Tetrafluoro-3,6,10,10-tetramethyl-12,12-dioxo-24-oxa-12lambda6-thia-3,4,19,30-tetrazapentacyclo[23.3.1.12,5.015,23.016,20]triaconta-1(29),2(30),4,15,17,20,22,25,27-nonaen-6-yl)phenyl]propanoic Acid], for which the “DSLS 3D (100 μM ΔT)” value on NBD1 is “C (a value greater than 10 °C and less than or equal to 25 °C is marked “C”)”. Further, the “TECC (AUC, 10 μM)” value at CFTR was “A (a TECC value less than 12 is marked “A”)”.
Turning to `Cn1nc2nc1-c1cc(ccc1F)Oc1c(F)cc3[nH]ccc3c1CCS(=O)(=O)CC(C)(C)/C(F)=C/CC2(C)c1cccc(CCC(=O)O)c1` (stereo not shown) [Compound 107, 3-[3-[(8Z)-9,22,28-Trifluoro-3,6,10,10-tetramethyl-12,12-dioxo-24-oxa-12lambda6-thia-3,4,19,30-tetrazapentacyclo-[23.3.1.12,5.015,23.016,20]triaconta-1(29),2(30),4,8,15,17,20,22,25,27-decaen-6-yl]phenyl]propanoic acid], the “DSLS 3D (100 μM ΔT)” value on NBD1 was “C (a value greater than 10 °C and less than or equal to 25 °C is marked “C”)”. Also, the “TECC (AUC, 10 μM)” value at CFTR was “A (a TECC value less than 12 is marked “A”)”.
As to `CC(Cc1cccc(C2(C)CCS(=O)(=O)CC(C)(C)c3cnn(c3)Cc3c(c(F)cc4[nH]ccc34)Oc3ccc(F)c(c3)-c3nc2nn3C)c1)C(=O)O` (stereo not shown) [Compound 110, 3-[3-(24,30-Difluoro-3,6,11,11-tetramethyl-9,9-dioxo-26-oxa-9lambda6-thia-3,4,14,15,21,33-hexazahexacyclo-[25.3.1.12,5.112,15.017,25.018,22]tritriaconta-1(31),2(33),4,12(32),13,17,19,22,24,27,29-undecaen-6-yl)phenyl]-2-methyl-propanoic Acid], the “DSLS 3D (100 μM ΔT)” value at NBD1 is “B (a value above 5 °C and less than or equal to 10 °C is marked “B”)”. The “TECC (AUC, 10 μM)” value on CFTR was “C (a value between 20 and 80 is marked “C”)”.
With `Cn1nc2nc1-c1cc(ccc1F)Oc1c(F)cc3[nH]ccc3c1Cn1cc(cn1)C(C)(C)S(=O)(=O)CCCC2(C)c1cccc(CCC(=O)O)c1` (stereo not shown) [Compound 111, 3-[3-(24,30-Difluoro-3,6,11,11-tetramethyl-10,10-dioxo-26-oxa-10λ6-thia-3,4,14,15,21,33-hexazahexacyclo[25.3.1.12,5.112,15.017,25.018,22]-tritriaconta-1(31),2(33),4,12(32),13,17,19,22,24,27,29-undecaen-6-yl)phenyl]propanoic Acid], on NBD1, the “DSLS 3D (100 μM ΔT)” value was “C (a value greater than 10 °C and less than or equal to 25 °C is marked “C”)”. For the same compound, the “TECC (AUC, 10 μM)” value on CFTR is given as “B (a value between 12-20 is marked “B”)”.
As for `CC(Cc1cccc(C2(C)CCS(=O)(=O)CCS(=O)(=O)CCc3c(c(F)cc4[nH]ccc34)Oc3ccc(F)c(c3)-c3nc2nn3C)c1)C(=O)O` (stereo not shown) [Compound 112, 3-[3-(22,28-Difluoro-3,6-dimethyl-9,9,12,12-tetraoxo-24-oxa-9lambda6,12lambda6-dithia-3,4,19,30-tetrazapentacyclo[23.3.1.12,5.015,23.016,20]triaconta-1(29),2(30),4,15,17,20,22,25,27-nonaen-6-yl)phenyl]-2-methyl-propanoic Acid], the “DSLS 3D (100 μM ΔT)” value at NBD1 is “B (a value above 5 °C and less than or equal to 10 °C is marked “B”)”. Besides, at CFTR, the “TECC (AUC, 10 μM)” value is reported as “A (a TECC value less than 12 is marked “A”)”.
`CC(Cc1cccc(C2CCCC(C)(C)CS(=O)(=O)CCc3c(c(F)cc4[nH]ccc34)Oc3ccc(F)c(c3)-c3nc2nn3C)c1)C(=O)O` (stereo not shown) [Compound 114, 3-[3-(22,28-Difluoro-3,10,10-trimethyl-12,12-dioxo-24-oxa-12λ6-thia-3,4,19,30-tetrazapentacyclo[23.3.1.12,5.015,23.016,20]triaconta-1(29),2(30),4,15,17,20,22,25,27-nonaen-6-yl)phenyl]-2-methyl-propanoic Acid]: on NBD1, the “DSLS 3D (100 μM ΔT)” value is “C (a value greater than 10 °C and less than or equal to 25 °C is marked “C”)”. Moreover, the “TECC (AUC, 10 μM)” value at CFTR is listed as “B (a value between 12-20 is marked “B”)”.
Turning to `CC(Cc1cccc(C2(C3SCCS3)CCCC(C)(C)CS(=O)(=O)CCc3c(c(F)cc4[nH]ccc34)Oc3ccc(F)c(c3)-c3nc2nn3C)c1)C(=O)O` (stereo not shown) [Compound 115, 3-[3-[6-(1,3-Dithiolan-2-yl)-22,28-difluoro-3,10,10-trimethyl-12,12-dioxo-24-oxa-12λ6-thia-3,4,19,30-tetrazapentacyclo-[23.3.1.12,5.015,23.016,20]triaconta-1(29),2(30),4,15,17,20,22,25,27-nonaen-6-yl]phenyl]-2-methyl-propanoic Acid], the “DSLS 3D (100 μM ΔT)” value on NBD1 is “C (a value greater than 10 °C and less than or equal to 25 °C is marked “C”)”. In addition, the “TECC (AUC, 10 μM)” value at CFTR is given as “A (a TECC value less than 12 is marked “A”)”.
